ChEMBL document CHEMBL1201862, “PubChem BioAssay data set” (2004)
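Step 1: Grow cells in 96-well plates. Step 2: Expose to compound for 48 hours at 5 concentrations. Step 3: Interpolate endpoints linearly; if unreached, use highest concentration. Abbreviation: GI50, concentration required for 50% inhibition of growth.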 The source made the active and inactive calls. Rule as the data show it: active = GI50 up to about 1.1 µM and inactive = higher.

Legend:
Assay in all cases: growth of human tumour cells (NCI), 48 h
RPMI-8226 = system: RPMI-8226
SNB-75 = system: SNB-75
SK-MEL-28 = system: SK-MEL-28
NCI/ADR-RES = system: NCI/ADR-RES
OVCAR-3 = system: OVCAR-3
MCF7 = system: MCF7
IGROV-1 = system: IGROV-1
SK-MEL-5 = system: SK-MEL-5
SF-295 = system: SF-295
MDA-MB-435 = system: MDA-MB-435
SN12C = system: SN12C
RXF 393 = system: RXF 393
HOP-92 = system: HOP-92
SF-268 = system: SF-268
CAKI-1 = system: CAKI-1
UACC-257 = system: UACC-257
SW-620 = system: SW-620
OVCAR-4 = system: OVCAR-4
SK-MEL-2 = system: SK-MEL-2
CCRF-CEM = system: CCRF-CEM

Structure (SMILES) | GI50 (RPMI-8226) | GI50 (SNB-75) | GI50 (SK-MEL-28) | GI50 (NCI/ADR-RES) | GI50 (OVCAR-3) | GI50 (MCF7) | GI50 (IGROV-1) | GI50 (SK-MEL-5) | GI50 (SF-295) | GI50 (MDA-MB-435) | GI50 (SN12C) | GI50 (RXF 393) | GI50 (HOP-92) | GI50 (SF-268) | GI50 (CAKI-1) | GI50 (UACC-257) | GI50 (SW-620) | GI50 (OVCAR-4) | GI50 (SK-MEL-2) | GI50 (CCRF-CEM)
O=C(O)CSCC(=O)c1ccccc1 | > 100 µM (inactive) | > 100 µM (inactive) | > 100 µM (inactive) | > 100 µM (inactive) | > 100 µM (inactive) | > 100 µM (inactive) | > 100 µM (inactive) | > 100 µM (inactive) | > 100 µM (inactive) | > 100 µM (inactive) | > 100 µM (inactive) | > 100 µM (inactive) | > 100 µM (inactive) | > 100 µM (inactive) | > 100 µM (inactive) | > 100 µM (inactive) | > 100 µM (inactive) | > 100 µM (inactive) | > 100 µM (inactive) | –
C/C1=C/C2=CC(C)C[C@@H]2C(=O)[C@]2(C)C(=O)CC(C)(C)[C@H]2CC1=O (stereo partly specified) | 34.8 µM (inactive) | > 50 µM (inactive) | – | > 50 µM (inactive) | > 50 µM (inactive) | > 50 µM (inactive) | > 50 µM (inactive) | > 50 µM (inactive) | > 50 µM (inactive) | > 50 µM (inactive) | > 50 µM (inactive) | – | > 50 µM (inactive) | > 50 µM (inactive) | > 50 µM (inactive) | > 50 µM (inactive) | > 50 µM (inactive) | > 50 µM (inactive) | > 50 µM (inactive) | 15 µM (inactive)
COC(=O)c1sc2c(c1C(=O)OC)/C(=N/C(C)(C)C)S/C2=N\C(C)(C)C | 15.2 µM (inactive) | – | 17.3 µM (inactive) | 19.8 µM (inactive) | 20.3 µM (inactive) | 17.7 µM (inactive) | 19.6 µM (inactive) | 14.8 µM (inactive) | 19.2 µM (inactive) | 18.4 µM (inactive) | 16.6 µM (inactive) | 4.02 µM (inactive) | 18.7 µM (inactive) | 19.1 µM (inactive) | 17.2 µM (inactive) | 17.9 µM (inactive) | 17.9 µM (inactive) | 17.7 µM (inactive) | 17.1 µM (inactive) | 15.6 µM (inactive)
O=c1n(-c2ccccc2)c(=O)n2n1C1CCC2CC1 | > 100 µM (inactive) | > 100 µM (inactive) | > 100 µM (inactive) | > 100 µM (inactive) | > 100 µM (inactive) | > 100 µM (inactive) | > 100 µM (inactive) | > 100 µM (inactive) | > 100 µM (inactive) | > 100 µM (inactive) | > 100 µM (inactive) | – | > 100 µM (inactive) | > 100 µM (inactive) | > 100 µM (inactive) | > 100 µM (inactive) | > 100 µM (inactive) | – | > 100 µM (inactive) | > 100 µM (inactive)
O=c1[nH]c(=O)n(C2CC(O)C(COP(=O)(OCC(Cl)(Cl)Cl)OCC(Cl)(Cl)Cl)O2)cc1F (stereo unspecified) | 3.72 µM (inactive) | 6.1 µM (inactive) | > 28.6 µM (inactive) | 1.29 µM (inactive) | 8 µM (inactive) | 0.0619 µM (active) | > 65.6 µM (inactive) | 1.97 µM (inactive) | 0.123 µM (active) | > 86.3 µM (inactive) | 26.1 µM (inactive) | – | 6.9 µM (inactive) | 1.24 µM (inactive) | 0.3 µM (active) | > 100 µM (inactive) | > 100 µM (inactive) | > 76 µM (inactive) | > 100 µM (inactive) | 0.195 µM (active)
COC(=O)c1nc(-c2nc(CCNC(=O)OC(C)(C)C)sc2Cl)sc1Cl | 41.1 µM (inactive) | 23.1 µM (inactive) | 70.1 µM (inactive) | 32.2 µM (inactive) | 68.9 µM (inactive) | 52 µM (inactive) | > 100 µM (inactive) | 31.8 µM (inactive) | > 100 µM (inactive) | 92 µM (inactive) | > 10 µM (inactive) | > 100 µM (inactive) | 6.62 µM (inactive) | 74.6 µM (inactive) | – | > 100 µM (inactive) | > 100 µM (inactive) | – | – | 32.2 µM (inactive)
Cc1c(OCc2cccc3ccccc23)ccc2c(O)cc(=S)oc12 | – | 40.9 µM (inactive) | 43.6 µM (inactive) | 38.2 µM (inactive) | 22.9 µM (inactive) | 45.7 µM (inactive) | 42.6 µM (inactive) | 18.5 µM (inactive) | 29.8 µM (inactive) | 30.1 µM (inactive) | 48.4 µM (inactive) | 57.9 µM (inactive) | 27.1 µM (inactive) | 34.1 µM (inactive) | 43 µM (inactive) | 46.3 µM (inactive) | 39.2 µM (inactive) | 29 µM (inactive) | 19.4 µM (inactive) | 22.1 µM (inactive)
CC(=O)N1c2ccccc2C(C)(C)OC1C(Cl)(Cl)Cl (stereo unspecified) | 14.1 µM (inactive) | 17.1 µM (inactive) | 47.6 µM (inactive) | 31.7 µM (inactive) | 33.1 µM (inactive) | 23.6 µM (inactive) | 41.8 µM (inactive) | 23.8 µM (inactive) | 37.6 µM (inactive) | 25.5 µM (inactive) | 29.9 µM (inactive) | – | 21 µM (inactive) | 37.3 µM (inactive) | 46.6 µM (inactive) | 26.5 µM (inactive) | 34 µM (inactive) | 42.5 µM (inactive) | 45.1 µM (inactive) | 27.7 µM (inactive)
NNC(=O)CNC(=O)CSc1nnc(COc2ccc(Cl)cc2)n1-c1ccccc1 | – | > 100 µM (inactive) | > 100 µM (inactive) | > 100 µM (inactive) | > 100 µM (inactive) | > 100 µM (inactive) | > 100 µM (inactive) | – | > 100 µM (inactive) | > 100 µM (inactive) | > 100 µM (inactive) | > 100 µM (inactive) | > 100 µM (inactive) | > 100 µM (inactive) | > 100 µM (inactive) | > 100 µM (inactive) | > 100 µM (inactive) | > 100 µM (inactive) | > 100 µM (inactive) | 60.5 µM (inactive)
Cc1ccc(S(=O)(=O)N/N=C2/CC[C@H](C(C)(C)C)C[C@@H]2C)cc1 | 33.4 µM (inactive) | 17.8 µM (inactive) | 17 µM (inactive) | 15 µM (inactive) | 12.6 µM (inactive) | 18.5 µM (inactive) | 14.9 µM (inactive) | 13.8 µM (inactive) | 15.8 µM (inactive) | 16 µM (inactive) | 16.3 µM (inactive) | – | 16.7 µM (inactive) | > 10 µM (inactive) | 13.5 µM (inactive) | 13.9 µM (inactive) | 22.5 µM (inactive) | 0.574 µM (active) | 17.1 µM (inactive) | 15.8 µM (inactive)
COc1ccc(/C=c2/[nH]c(=O)/c(=C\c3ccc(OCc4ccccc4)cn3)[nH]c2=O)cc1 | – | 19.3 µM (inactive) | > 100 µM (inactive) | 58.1 µM (inactive) | > 100 µM (inactive) | 46 µM (inactive) | – | 50.2 µM (inactive) | 40.6 µM (inactive) | 19.9 µM (inactive) | > 100 µM (inactive) | 23.2 µM (inactive) | 23.2 µM (inactive) | 41.2 µM (inactive) | > 100 µM (inactive) | > 100 µM (inactive) | 62.4 µM (inactive) | > 100 µM (inactive) | 51.8 µM (inactive) | 13.9 µM (inactive)
Cc1ccc(/N=N/C(=N/NC(=O)c2cc(Cl)ccc2C(=O)c2ccccc2)c2ccc(N(CCC#N)CCC#N)cc2C)cc1 | 10.2 µM (inactive) | 18.2 µM (inactive) | 14.1 µM (inactive) | 21.1 µM (inactive) | 3.01 µM (inactive) | 3.52 µM (inactive) | 7.59 µM (inactive) | 14 µM (inactive) | 14.9 µM (inactive) | 18.7 µM (inactive) | 9.75 µM (inactive) | 0.0957 µM (active) | – | 10.8 µM (inactive) | 20.4 µM (inactive) | 15.9 µM (inactive) | 21.2 µM (inactive) | 10.4 µM (inactive) | 1.34 µM (inactive) | 3.17 µM (inactive)
ClCCN(CCCl)c1ccc(CNCCCNCc2ccc(N(CCCl)CCCl)cc2)cc1 | 3.52 µM (inactive) | – | 1.69 µM (inactive) | 6.15 µM (inactive) | 2.69 µM (inactive) | 1.21 µM (inactive) | 1.92 µM (inactive) | 1.95 µM (inactive) | – | 2.69 µM (inactive) | 1.63 µM (inactive) | 1.59 µM (inactive) | 4.78 µM (inactive) | 1.43 µM (inactive) | 6.64 µM (inactive) | 2.29 µM (inactive) | 3.03 µM (inactive) | – | 2.17 µM (inactive) | 2.78 µM (inactive)
COc1ccc(-c2c(C(C)=O)c(-c3ccccc3)n(C3OC(COC(C)=O)C(OC(C)=O)C(OC(C)=O)C3OC(C)=O)c(=S)c2C#N)cc1 (stereo unspecified) | – | 80.9 µM (inactive) | > 100 µM (inactive) | > 100 µM (inactive) | > 100 µM (inactive) | > 100 µM (inactive) | > 100 µM (inactive) | > 100 µM (inactive) | > 100 µM (inactive) | > 100 µM (inactive) | > 100 µM (inactive) | > 100 µM (inactive) | 19.2 µM (inactive) | > 100 µM (inactive) | > 100 µM (inactive) | > 100 µM (inactive) | > 100 µM (inactive) | > 100 µM (inactive) | – | > 100 µM (inactive)
Fc1ccc(C(OCCN2CCN(CCCCl)CC2)c2ccc(F)cc2)cc1 | 20.8 µM (inactive) | – | 38.4 µM (inactive) | 24.7 µM (inactive) | 25.8 µM (inactive) | 21.6 µM (inactive) | 26 µM (inactive) | 18 µM (inactive) | 22.9 µM (inactive) | 17.1 µM (inactive) | 25.3 µM (inactive) | 23.7 µM (inactive) | 12.5 µM (inactive) | 24.5 µM (inactive) | 31 µM (inactive) | 21 µM (inactive) | 32.2 µM (inactive) | 24.9 µM (inactive) | 24.2 µM (inactive) | 40.2 µM (inactive)
